# Laboratory results: PubChem BioAssay (NCI)
#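 Briefly, cells in 96-well plates were exposed to five compound concentrations for 48 h, and endpoints were estimated by linear interpolation. GI50 marks 50% less growth. Definition used: TGI = concentration required for complete inhibition of growth.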
# Legend:
# Assay in all cases: DTP human tumour cell line panel, 48 h
# [1] = system: HCC-2998 colon
# [2] = system: HS 578T breast
# [3] = system: MCF7 breast
# [4] = system: NCI-H23 lung
# [5] = system: NCI/ADR-RES ovarian
# [6] = system: OVCAR-3 ovarian
# [7] = system: RPMI-8226 leukemia
# [8] = system: SK-MEL-2 melanoma
# [9] = system: SW-620 colon
# [10] = system: UACC-62 melanoma
SMILES,GI50 [1],TGI [1],GI50 [2],TGI [2],GI50 [3],TGI [3],GI50 [4],TGI [4],GI50 [5],TGI [5],GI50 [6],TGI [6],GI50 [7],TGI [7],GI50 [8],TGI [8],GI50 [9],TGI [9],GI50 [10],TGI [10]
CCCCOC(=O)c1ccc(N)cc1,22.7 µM,66.2 µM,96.1 µM,> 100 µM,74.6 µM,> 100 µM,> 100 µM,> 100 µM,92.4 µM,> 100 µM,68 µM,> 100 µM,67.2 µM,> 100 µM,> 100 µM,> 100 µM,64 µM,> 100 µM,17.9 µM,> 100 µM
Cc1ccc2oc(=O)cc(/C(=C3/C=CC=N3)c3ccc[nH]3)c2c1,1.15 µM,3.12 µM,0.391 µM,4.7 µM,0.348 µM,4.23 µM,0.484 µM,3.66 µM,0.314 µM,3.77 µM,0.271 µM,0.707 µM,0.297 µM,1.16 µM,0.74 µM,2.89 µM,0.396 µM,13.7 µM,0.373 µM,1.98 µM
COC(=O)C1=C(O)[C@H](C(=O)OC)C2(O)C(C(=O)OC)[C@H](c3ccc(OC(=O)C(C)c4ccccc4)cc3)C[C@@H]1[C@@H]2C(=O)OC (some centres undefined),10.7 µM,20.6 µM,10.3 µM,34.1 µM,33.7 µM,> 50 µM,12.5 µM,29.2 µM,> 50 µM,> 50 µM,9.69 µM,21.4 µM,18.8 µM,> 50 µM,31 µM,> 50 µM,21 µM,> 50 µM,16.9 µM,> 50 µM
CC1=CC(C)=NN=C(N)N1S(=O)(=O)c1cc(C)c(Cl)cc1SCc1ccccc1,11.9 µM,> 100 µM,> 100 µM,> 100 µM,13.3 µM,> 100 µM,14.2 µM,> 100 µM,8.71 µM,> 100 µM,22.6 µM,> 100 µM,5.93 µM,> 100 µM,37.2 µM,> 100 µM,24.8 µM,> 100 µM,12.4 µM,> 100 µM
CCCCC(CCCCCC(CCCC)NCc1ccc2c(c1)OCO2)NCc1ccc2c(c1)OCO2 (centres undefined),0.178 µM,0.322 µM,0.977 µM,2.92 µM,0.273 µM,0.744 µM,1.32 µM,2.71 µM,0.711 µM,1.93 µM,0.936 µM,2.25 µM,0.276 µM,0.805 µM,0.336 µM,0.835 µM,0.206 µM,0.437 µM,1.57 µM,3.12 µM
O=C(CC1(O)C(=O)N(Cc2ccccc2)c2ccc(Cl)cc21)c1ccc(C(=O)NCC2CCC3(CC2)OOC2(CCCCC2)OO3)cc1 (centres undefined),1.31 µM,3.02 µM,2.11 µM,11.6 µM,1.81 µM,66.2 µM,0.204 µM,0.477 µM,0.271 µM,0.833 µM,0.197 µM,0.419 µM,0.462 µM,2.18 µM,1.87 µM,4.41 µM,2.21 µM,5.88 µM,6.26 µM,77.7 µM
COc1cc2c3cc1Oc1c(OC)c(OC)cc4c1C(=NCC4)Cc1ccc(cc1)Oc1cc(ccc1O)C[C@H]3N(C)CC2,,26.1 µM,,63.7 µM,,70 µM,,44 µM,,29.6 µM,,39.4 µM,,47.5 µM,,31.1 µM,,36.7 µM,,30.3 µM
NC(N)=NCC1CCCCCCN1 (centres undefined),,> 100 µM,,> 100 µM,,> 100 µM,,> 100 µM,,> 100 µM,,> 100 µM,,> 100 µM,,> 100 µM,,> 100 µM,,> 100 µM
CC1=C2CC(C)(C)/C=C\C(=O)/C(C)=C\C3=C[C@H](C)C[C@]3(O2)C1=O,,10.2 µM,,22.3 µM,,2.14 µM,,3.76 µM,,7.77 µM,,1.15 µM,,1.51 µM,,7.69 µM,,1.49 µM,,3.37 µM
CC(C)N1CCN(c2ccncc2S(=O)(=O)N2CCCCC2)CC1,,> 100 µM,,> 100 µM,,> 100 µM,,> 100 µM,,> 100 µM,,> 100 µM,,> 100 µM,,> 100 µM,,> 100 µM,,> 100 µM
O=C1/C=C/[C@@H](O)[C@@H]2C[C@@H](O)C[C@H]2/C=C/CCC[C@H](CCc2cccc3ccccc23)O1,0.0444 µM,0.33 µM,0.779 µM,> 49.2 µM,0.0753 µM,0.377 µM,0.0637 µM,1.9 µM,0.0389 µM,1.86 µM,0.0395 µM,1.83 µM,0.0847 µM,2.73 µM,0.175 µM,0.521 µM,0.0518 µM,0.451 µM,0.038 µM,12.9 µM
C[C@@]1(C(=O)O)CCC[C@]2(C)C1CC[C@@]13C[C@@](O)(CC[C@]12O)[C@@]1(CO1)C3 (some centres undefined),> 100 µM,> 100 µM,> 100 µM,> 100 µM,> 100 µM,> 100 µM,> 100 µM,> 100 µM,> 100 µM,> 100 µM,> 100 µM,> 100 µM,> 100 µM,> 100 µM,> 100 µM,> 100 µM,> 100 µM,> 100 µM,> 100 µM,> 100 µM
O=C(CCl)NCCNc1nccc(Nc2ccc(S(=O)(=O)Nc3ccccn3)cc2)n1,4.8 µM,20.5 µM,5.23 µM,> 100 µM,1.78 µM,5.61 µM,2.04 µM,6.11 µM,2.96 µM,83.2 µM,1.77 µM,6.17 µM,2.09 µM,7.6 µM,2.33 µM,7.83 µM,2.49 µM,7.27 µM,1.74 µM,4.24 µM
N#Cc1c(NCc2ccccc2)nc(NCc2ccccc2)c(C#N)c1-c1ccc(O)cc1,39.5 µM,> 100 µM,22.9 µM,> 100 µM,39.7 µM,> 100 µM,45.3 µM,> 100 µM,47 µM,> 100 µM,29.6 µM,87.4 µM,21.9 µM,> 100 µM,41.1 µM,90.7 µM,36.1 µM,> 100 µM,21.5 µM,> 100 µM
C=C1C(=O)O[C@H]2[C@H]1CC/C(COC(=O)NCc1c[nH]c3ccccc13)=C\CC[C@@]1(C)O[C@@H]21,6.41 µM,19 µM,10.3 µM,43.9 µM,1.5 µM,4.39 µM,8.37 µM,24.5 µM,6.4 µM,23.1 µM,1.71 µM,4.57 µM,1.79 µM,6.14 µM,11.1 µM,24.5 µM,1.7 µM,4.28 µM,1.72 µM,3.95 µM
O=C(Nc1ccc(Cc2ccccc2)cc1)Nc1nn(C(=O)Nc2ccc(Cc3ccccc3)cc2)c2ccccc12,> 100 µM,> 100 µM,74.2 µM,> 100 µM,> 100 µM,> 100 µM,> 100 µM,> 100 µM,> 100 µM,> 100 µM,> 100 µM,> 100 µM,> 100 µM,> 100 µM,> 100 µM,> 100 µM,> 100 µM,> 100 µM,41.6 µM,> 100 µM
Oc1ccc(Nc2ccc3ccccc3c2)cc1,4.29 µM,17.8 µM,12.1 µM,57.1 µM,15.8 µM,> 100 µM,10.9 µM,55.3 µM,4.4 µM,67 µM,5.66 µM,19 µM,9.61 µM,> 100 µM,15.3 µM,46 µM,5.86 µM,19.5 µM,3.96 µM,18 µM
CCCCN1CCCC[C@@H]1C(=O)N[C@H](C(=O)N(C)[C@H](C[C@@H](OC(C)=O)c1nc(C(=O)NC2CCC(C(=O)OC)CC2)cs1)C(C)C)C(C)C (some centres undefined),4.02 µM,> 25 µM,1.96 µM,> 25 µM,0.806 µM,> 25 µM,1.5 µM,> 25 µM,3.53 µM,> 25 µM,1.07 µM,> 25 µM,1.1 µM,> 25 µM,5.28 µM,> 25 µM,1.06 µM,> 25 µM,1.06 µM,> 25 µM
COc1cccc(/C=C/C(=O)c2ccc(SC)cc2)c1OC,16.8 µM,30.4 µM,25.3 µM,56.6 µM,11 µM,35.8 µM,14.6 µM,28.2 µM,16.2 µM,38.5 µM,16.4 µM,32 µM,5.6 µM,> 100 µM,23.3 µM,40.7 µM,18.8 µM,35.7 µM,10.8 µM,23.8 µM
COc1ccc(C#Cc2ccc(=O)oc2-c2cc(OC)c(OC)c(OC)c2)cc1O,3.36 µM,44 µM,7.4 µM,> 81.9 µM,0.666 µM,> 100 µM,10.7 µM,> 100 µM,2.6 µM,> 40.6 µM,1.81 µM,28.5 µM,7.83 µM,> 88 µM,6.74 µM,> 100 µM,1.22 µM,> 100 µM,5.53 µM,> 100 µM
O=C1/C(=C/c2ccccc2)CN(C(=O)C(Cl)Cl)C/C1=C\c1ccccc1,0.703 µM,1.98 µM,1.32 µM,6.86 µM,0.113 µM,0.886 µM,0.822 µM,2.73 µM,0.452 µM,4.92 µM,0.33 µM,1.06 µM,0.0474 µM,0.278 µM,1.79 µM,4.07 µM,0.135 µM,0.44 µM,0.702 µM,2 µM
CC1(C)S[C@@H]2[C@H](N3C(=O)c4ccccc4C3=O)CN2[C@H]1NC(=O)N[C@@H]1N2C[C@@H](N3C(=O)c4ccccc4C3=O)[C@H]2SC1(C)C,,> 100 µM,,> 100 µM,,> 100 µM,,> 100 µM,,> 100 µM,,> 100 µM,,> 100 µM,,> 100 µM,,> 100 µM,,> 100 µM
COC(=O)c1ccc2c(c1)C(=O)c1c-2n(CCCCl)c(=O)c2cc([N+](=O)[O-])ccc12,> 100 µM,> 100 µM,> 100 µM,> 100 µM,52 µM,> 100 µM,94.6 µM,> 100 µM,> 100 µM,> 100 µM,96.6 µM,> 100 µM,84.5 µM,> 100 µM,> 100 µM,> 100 µM,44.6 µM,> 100 µM,27.5 µM,> 100 µM
CSC(=NC#N)S/C=C/C(=O)c1ccccc1,59.4 µM,> 100 µM,39 µM,96.8 µM,52.3 µM,> 100 µM,23.8 µM,58.8 µM,31.3 µM,99.3 µM,31.5 µM,> 100 µM,12.3 µM,34.7 µM,70.6 µM,> 100 µM,18 µM,43.3 µM,33.4 µM,> 100 µM
C=C(CN1CCN(c2ccc(C(F)(F)F)cc2)CC1)c1ccc(C(=O)Nc2ccccc2N)cc1,30.2 µM,> 100 µM,22.6 µM,> 100 µM,10.9 µM,> 100 µM,9.49 µM,> 100 µM,3.37 µM,> 100 µM,12 µM,> 100 µM,0.405 µM,,> 100 µM,> 100 µM,> 78.8 µM,> 100 µM,23 µM,> 100 µM
